Measurements from patent US12024707B2, “Methods and compositions for modulating lncRNAs and methods of treatment based on lncRNA expression” (Washington University, priority 2020, dated 2024).
Structures can show the parent of a compound that is named as a salt. Starred links: 1 amine or outer side, 2 acyl side, 3 side chain; linkers in the order of their positions; H or OH if unused. Positions of bridges follow the written chain, without caps; N, C: chain ends. Non-standard residues stand in square brackets, D forms with d. Residues, ends and D or L forms follow the SMILES beside them. Chains are numbered I, II in the order given. Actinocin(9to1) = Cc1c2oc3c(C)ccc(C(=O)[*:1])c3nc-2c(C(=O)[*:2])c(N)c1=O; NMeV = CN[C@H](C(=O)O)C(C)C; Sar = CNCC(=O)O

Tested on: HT29 RAMS11 overexpressing cells
Experiment: High-throughput viability assay (resazurin), 119 FDA-approved anticancer drugs, RAMS11 overexpressing cells (Clone1, Clone2)
Settings: 72 h, vs empty vector control
[1] = OE1 (RAMS11 overexpression clone 1), 0.1 uM drug
[2] = OE1 (RAMS11 overexpression clone 1), 1 uM drug
[3] = OE1 (RAMS11 overexpression clone 1), 10 uM drug
[4] = OE2 (RAMS11 overexpression clone 2), 0.1 uM drug
[5] = OE2 (RAMS11 overexpression clone 2), 1 uM drug
[6] = OE2 (RAMS11 overexpression clone 2), 10 uM drug

Experimental: The FDA-approved anticancer panel included multiple classes of drugs such as kinase inhibitors, alkylating agents, antineoplastic antibiotics, anthracycline antibiotics, and antineoplastic agents (topoisomerase inhibitors). The HT29 RAMS11 overexpressing and control cells were treated for 72 h to assess cellular viability upon drug treatment (FIG. 14a and TABLE 3). […] Due to 5-FU commonly used to treat mCRC, we further determined if RAMS11 expression altered drug sensitivity in treated cells.
Drugs were diluted in DMSO to 1 mM and the well assignments were rearranged so drugs were confined to the inner 60 wells of 96-well plates. […] The next day serial diluted drug was added to pre-seeded plates in media containing 1% DMSO vehicle, using a Robbins Hydra 96 micro dispenser. Two 96-well plates of cells were used as vehicle controls. The plates were incubated for 3 days. Percent viability was scored by incubating cells for 3 h with resazurin sodium (0.023 mg/mL, Sigma R7017). The reaction was stopped by the addition of SDS (1% final concentration). Fluorescence Ex/Em 540/590 was read in a Biotek Synergy H1 plate reader (Winooski, VT). The fluorescence values for the vehicle plates were averaged and percent viability was determined by the formula: Percent viability=(average vehicle−value)/(average vehicle−average resazurin in media blank)×100. […] Assays were repeated more than three times.

Structure (SMILES)	Viability Fold Change [1]	Viability Fold Change [2]	Viability Fold Change [3]	Viability Fold Change [4]	Viability Fold Change [5]	Viability Fold Change [6]
Cc1c2oc3c(C)ccc(C(=O)N[C@@H]4C(=O)N[C@H](C(C)C)C(=O)N5CCC[C@H]5C(=O)N(C)CC(=O)N(C)[C@@H](C(C)C)C(=O)O[C@@H]4C)c3nc-2c(C(=O)N[C@@H]2C(=O)N[C@H](C(C)C)C(=O)N3CCC[C@H]3C(=O)N(C)CC(=O)N(C)[C@@H](C(C)C)C(=O)O[C@@H]2C)c(N)c1=O [Dactinomycin] (I: T[dV]P[Sar][NMeV] / II: T[dV]P[Sar][NMeV]; ester I:1-I:C, II:1-II:C; linker I:N-II:N via Actinocin(9to1))	1.513	1.552	2.719	1.417	1.475	2.498
Cc1nc(Nc2ncc(C(=O)Nc3c(C)cccc3Cl)s2)cc(N2CCN(CCO)CC2)n1 [Dasatinib]	0.7242	1.289	1.518	0.7852	1.567	1.607
Nc1ncn([C@H]2C[C@H](O)[C@@H](CO)O2)c(=O)n1 [Decitabine]	0.9064	0.9366	0.8624	1.026	1.091	1.168
C[C@@H](CN1CC(=O)NC(=O)C1)N1CC(=O)NC(=O)C1 [Dexrazoxane]	0.9553	0.9814	0.8688	0.9411	1.049	1.119
CC(=O)O[C@@]12CO[C@@H]1C[C@H](O)[C@@]1(C)C(=O)[C@H](O)C3=C(C)[C@@H](OC(=O)[C@H](O)[C@@H](NC(=O)OC(C)(C)C)c4ccccc4)C[C@@](O)([C@@H](OC(=O)c4ccccc4)[C@H]21)C3(C)C [Docetaxel]	2.831	2.996	2.894	2.726	2.845	2.869
CNC(=O)c1ccc(N2C(=S)N(c3ccc(C#N)c(C(F)(F)F)c3)C(=O)C2(C)C)cc1F [Enzalutamide]	1.043	1.081	1.088	1.022	1.152	1.1
COc1cccc2c1C(=O)c1c(O)c3c(c(O)c1C2=O)C[C@@](O)(C(=O)CO)C[C@@H]3O[C@H]1C[C@H](N)[C@@H](O)[C@H](C)O1 [Epirubicin hydrochloride]	1.025	1.822	2.19	1.023	1.861	1.999
C#Cc1cccc(Nc2ncnc3cc(OCCOC)c(OCCOC)cc23)c1 [Erlotinib HCl]	0.9958	1.169	1.179	0.9899	1.172	1.215
C[C@]12CC[C@@H]3c4ccc(OC(=O)N(CCCl)CCCl)cc4CC[C@H]3[C@@H]1CC[C@@H]2O [Estramustine]	0.97	1.105	1.034	0.951	1.223	1.025
COc1cc([C@@H]2c3cc4c(cc3C(O[C@@H]3O[C@@H]5CO[C@@H](C)O[C@H]5[C@H](O)[C@H]3O)C3COC(=O)[C@@H]32)OCO4)cc(OC)c1O (stereo partly drawn) [Etopside]	1.144	1.073	1.161	1.13	0.9992	1.196
